The record followed here is publication PMC10892871 (Viruses, 2024).

Where “and” joins values, the source holds several entries; their conditions need not be identical. Equal entries are not always repeated.

The test system of this assay is Omicron BQ.1.1 SARS-CoV-2 variant. It counts as cell-based.

As to `O=c1nc(NO)ccn1[C@@H]1O[C@H](CO)[C@@H](O)[C@H]1O` [EIDD-1931, reference compound], where the note is “read-out: IC50 vs. BQ.1.1 Mean ± SD”, the IC50 was 1590 nM and 1600 nM. For the same compound, for the setting “read-out: IC90 vs. BQ.1.1 Mean ± SD”, the 90% effect concentration (IC90) was found to be 1800 ± 700 nM.
